# Assay results published in patent US20080214551A1, “Treatment of Burns” (AQ+ PLC, priority 2004, published 2008).
compound,measurement,value
Oc1cccc2cccnc12 [8-hydroxyquinoline],solubility in aqueous solution,generally insoluble or only poorly soluble
